Where a SMILES comes first, the peptide text is derived from it. [ ]: non-standard residue; d: D form.
Legend:
[1] = tested on: P. aeruginosa PaO1; type: cell-based
Description: (§1) In the initial screening, the bactericidal activity of the synthetic peptides and their toxicity on human lung epithelial cells (A549) were evaluated.
(§2) Table S1. MICs of the six hexapeptides for A. baumannii and E. coli.
(§3) Peptides P. aeruginosa PaO1
(§4) MIC: minimal inhibitory concentration

[2] = tested on: A. baumannii ATCC 17978; type: cell-based
Description: as §1, §2, §3, §4

[3] = tested on: E. coli ATCC 25922; type: cell-based
Description: as §1, §2, §3, §4

[4] = Peptide toxicity, MTT assay; type: cell-based, human; details: human, A549 cells
Description: (§5) Human type II pneumocyte cell line A549 derived from a human lung carcinoma were obtained from American Type Culture Collection (LGC, UK) and were grown in DMEM medium (Invitrogen, Spain) supplemented with 10% heat-inactivated fetal bovine serum, vancomycin (50 μg/mL), gentamicin (20 μg/mL), amphotericin B (0.25 μg/mL) (Invitrogen, Spain) and 1% HEPES (Invitrogen, Spain) in a humidified incubator, 5% CO2 at 37 °C. A549 cells were routinely passaged every 3–4 days. The cells were seeded 24 h in 96-well plates for cellular viability assay, and in 24 well plates for adhesion and immnunofluorescence assays.
(§6) Peptide toxicity. […] Prior the evaluation of the peptides cytotoxicity, A549 cells were washed three times with prewarmed PBS. Then, peptides cytotoxicity was initially assessed quantitatively by monitoring the mitochondrial reduction activity using the MTT assay as described previously. The percentage of […] was calculated from the optical density (OD) as follow: [(OD of treated cells / mean OD of non-treated cell) × 100].
(§7) Table S2. Percentages of A549 cellular viability assessed through mitochondrial reduction
(§8) activity (MTT assay) in presence of anti-OmpA hexapeptides and control peptides (SXV4 and
(§9) COL). COL: colistin. ND: not determined.
(§10) Peptides 0.25 mg/mL 0.5 mg/mL 1 mg/mL 5 mg/mL

[5] = tested on: A549 cells; assay: Peptide toxicity, MTT assay; type: cell-based, human; details: 48 h, MTT, mean ± SEM
Description: as §5, §6, §7, §8, §9, §10

Compound	MIC [1] [µg/mL]	MIC [2] [µg/mL]	MIC [3] [µg/mL]	viability at 48 h, 250 µg/mL [4] [%]	viability at 48 h, 500 µg/mL [4] [%]	viability at 48 h, 1000 µg/mL [4] [%]	Cellular viability (%) ([5]; A549, 0.5 mg/mL)	Cellular viability (%) ([5]; A549, 1 mg/mL)	Cellular viability (%) ([5]; A549, 5 mg/mL)
N=C(N)NCCC[C@@H]1NC(=O)[C@H](Cc2c[nH]c3ccccc23)NC(=O)[C@H]2CCCN2C(=O)[C@H](CCCNC(=N)N)NC(=O)[C@H](Cc2c[nH]c3ccccc23)NC(=O)[C@H]2CCCN2C1=O [AOA-1] (cyclo(R[dP]WR[dP]W))	> 500	> 500	> 500	98.89 ± 0.41	99.69 ± 0.26	99.7 ± 0.38	–	–	–
colistin [reference compound]	–	–	–	–	–	–	91.85 ± 2.67	68.39 ± 2.93	9.88 ± 0.42
N=C(N)NCCC[C@@H]1NC(=O)[C@@H](Cc2c[nH]c3ccccc23)NC(=O)[C@@H]2CCCN2C(=O)[C@H](CCCNC(=N)N)NC(=O)[C@@H](Cc2c[nH]c3ccccc23)NC(=O)[C@@H]2CCCN2C1=O [AOA-3] (cyclo(P[dW]RP[dW]R))	> 500	> 500	> 500	99.27 ± 0.21	99.7 ± 0.14	99.36 ± 0.3	–	–	–

Further lines, with some results ahead:

MIC [1] [µg/mL]	MIC [2] [µg/mL]	MIC [3] [µg/mL]	Compound	viability at 48 h, 250 µg/mL [4] [%]	viability at 48 h, 500 µg/mL [4] [%]	viability at 48 h, 1000 µg/mL [4] [%]	Cellular viability (%) ([5]; A549, 0.5 mg/mL)	Cellular viability (%) ([5]; A549, 1 mg/mL)	Cellular viability (%) ([5]; A549, 5 mg/mL)
> 500	> 500	> 500	N=C(N)NCCC[C@H]1NC(=O)[C@H](Cc2c[nH]c3ccccc23)NC(=O)[C@@H]2CCCN2C(=O)[C@@H](CCCNC(=N)N)NC(=O)[C@H](Cc2c[nH]c3ccccc23)NC(=O)[C@@H]2CCCN2C1=O [AOA-4] (cyclo(PW[dR]PW[dR]))	99.47 ± 0.39	99.77 ± 0.17	100.1 ± 0.18	–	–	–
> 500	> 500	> 500	O=C1N[C@@H](CO)C(=O)N2CCC[C@@H]2C(=O)N[C@@H](Cc2c[nH]c3ccccc23)C(=O)N[C@@H](CO)C(=O)N2CCC[C@@H]2C(=O)N[C@H]1Cc1c[nH]c2ccccc12 [AOA-5] (cyclo(S[dP]WS[dP]W))	98.86 ± 0.08	100 ± 0.39	100.1 ± 0.46	–	–	–
> 500	> 500	> 500	CC(=O)N[C@@H](Cc1c[nH]c2ccccc12)C(=O)N1CCC[C@@H]1C(=O)N[C@@H](CCCNC(=N)N)C(=O)N[C@@H](Cc1c[nH]c2ccccc12)C(=O)N1CCC[C@@H]1C(=O)N[C@@H](CCCNC(=N)N)C(=O)O [SXV4] (Ac-W[dP]RW[dP]R-OH)	98.17 ± 0.6	98.79 ± 0.28	98.55 ± 0.21	–	–	–
> 500	> 500	> 500	O=C(O)CC[C@@H]1NC(=O)[C@H](Cc2c[nH]c3ccccc23)NC(=O)[C@H]2CCCN2C(=O)[C@H](CCC(=O)O)NC(=O)[C@H](Cc2c[nH]c3ccccc23)NC(=O)[C@H]2CCCN2C1=O [AOA-6] (cyclo(E[dP]WE[dP]W))	98.31 ± 0.35	99.14 ± 0.44	99.38 ± 0.34	–	–	–
